Laboratory results reported in patent US20180103845A1, “METHOD FOR ASSESSING IRRITANCY TO BIOLOGICAL SAMPLES” (OLYMPUS CORPORATION, priority 2016, published 2018).

Tested on: human skin models based on SkinEthic RHE
Experiment: Skin irritation test on three-dimensional human skin model (TG439 exposure, Nuclear-ID live/dead nuclear fluorescence, 3D confocal imaging)
Method: As such a biological sample 1, a three-dimensional human skin model approved in the OECD Testing Guidelines (TG) 439 (In Vitro Skin Irritation: Reconstructed Human Epidermis Test Method), such as SkinEthic RHE (manufactured by SkinEthic, France) having a thickness of about 100 μm, is favorably used. […] For irritancy assessment, dermal tissue may be contained in addition to the epidermis.
The chemical treatment step S1 is carried out in accordance with TG439. […]
Next, in the fluorescence labeling step S2, the nuclei of the cells in the biological tissues are fluorescence-labeled with a predetermined fluorescent marker. For fluorescence labeling, for example, a first fluorescent dye that specifically labels the nuclei of living cells, and a second fluorescent dye that emits fluorescence of a wavelength different from that of the first fluorescent dye and that specifically labels the nuclei of dead cells are used. […]
Next, in the image acquisition step S3, fluorescence images of the nuclei of living cells and the nuclei of dead cells at different depth positions in the biological sample are acquired using a fluorescence microscope.
FIGS. 5 and 6 show fluorescence images of biological samples exposed to 1% and 10% Triton-X, respectively. […] FIGS. 9 and 10 show fluorescence images of biological samples exposed to PBS and a 5% SDS solution, as controls. […]

## Triton-X
Human skin model exposed to 1% and 10% chemical (FIGS. 5 to 8), 42 min exposure, 42 h culture per TG439
  three-dimensional structures of cells, such as the nuclei: preserved

## CCCCCCCCCCCCOS(=O)(=O)[O-].[Na+] [SDS, sodium dodecyl sulphate]
Human skin model exposed to 5% SDS solution, positive control (FIG. 10)
  structures such as the nuclei of dead cells: disrupted
